In patent publication US10105440B2, “Synthetic derivatives of MPL and uses thereof” (VARIATION BIOTECHNOLOGIES INC., priority 2011, dated 2018):

Legend:
[1] = system: Human Peripheral Blood Mononuclear Cell (hPBMC); assay: Cytokine induction assay (BD Cytometric Bead Array) in hPBMC culture supernatants; format: cell-based; conditions: human PBMCs (n=3) stimulated 48 hours, CBA assay
Description: The BD™ Cytometric Bead Array (CBA) Human inflammatory Cytokines Kit was used to quantitatively measure Tumor Necrosis Factor (TNF a), Interleukin-6 (IL-6) and Interleukin-1β (IL-1β) protein levels in single samples of Human Peripheral Blood Mononuclear Cell (hPBMC) culture supernatants pretreated with either the adjuvant PHAD or MAV4. The detection reagent provided in the kit was a mixture of phycoerythrin (PE)-conjugated antibodies, which provides a fluorescent signal in proportion to the amount of bound cytokine.
When the capture beads and detector reagent are incubated with an unknown sample containing recognized cytokines, sandwich complexes (capture bead+cytokine+detection reagent) are formed. These complexes are measured using flow cytometry.
To perform the assay lyophilized human inflammatory cytokine standards were reconstituted with assay diluent and serially diluted (standard curve for each protein covers a defined set of concentrations from […]) and test samples were diluted to the desired dilution factor using the assay diluent before mixing all assay tubes with capture beads (50 μl) and PE detection reagent (50 μl). […] Samples were then analyzed by flow cytometry and data was analyzed using FCAP Array Software. […]

[2] = Reverse phase HPLC analysis of adjuvant co-melted with 1-monopalmitoyl glycerol (thermostability); format: physicochemical
Procedure: Reverse phase HPLC analysis of PHAD and MAV4 co-melted with 1-monopalmitoyl glycerol at the inverted melt method temperature (Example 4) was used to evaluate the thermostability or thermolability of the two adjuvants under these thermal conditions. In the procedure, the samples were prepared as follows, in isopropanol (IPA) using 1.5 ml autoinjection vials as duplicates: PHAD: 20 μg PHAD+180 μg 1-monopalmitoyl glycerol (1:9 wt ratio); MAV4: 10 μg+90 μg 1-monopalmitoyl glycerol (1:9 wt ratio).
The samples were lyophilized overnight. The dried samples were melted for six minutes at 120° C. and 140° C. Each sample was then dissolved in IPA to give a concentration of 0.1 μg/μl for an HPLC load of 20 μL.

Substance: phosphorylated hexaacyl disaccharide [PHAD]
- secretion of TNF-α, IL-1β and IL-6 [1]: induced dose-dependent immune responses
- Area Under the Curve (AUC) of the HPLC peak ([2]; co-melted with 1-monopalmitoyl glycerol (1:9 wt), melted six minutes at 140° C. versus 120° C.): significant decrease
- minor peaks (degradation) in the chromatogram ([2]; co-melted with 1-monopalmitoyl glycerol, melted at 120° C. and 140° C.): No minor peaks were observed
